Laboratory results reported in paper PMC12494820, “Predicting input signals of transcription factors in Escherichia coli” (Molecular Systems Biology, 2025).

How the values were obtained:
LeuO = molecular target: T1, LeuO (Escherichia coli, UniProt P10151); assay: thermal shift assay (Protein Thermal Shift Dye); format: binding; settings: 10 mM compound; LeuO with leuLABCD promoter DNA; pH 7.5, EMSA buffer without BSA; activating effector
T1 sequence (P10151 1-314): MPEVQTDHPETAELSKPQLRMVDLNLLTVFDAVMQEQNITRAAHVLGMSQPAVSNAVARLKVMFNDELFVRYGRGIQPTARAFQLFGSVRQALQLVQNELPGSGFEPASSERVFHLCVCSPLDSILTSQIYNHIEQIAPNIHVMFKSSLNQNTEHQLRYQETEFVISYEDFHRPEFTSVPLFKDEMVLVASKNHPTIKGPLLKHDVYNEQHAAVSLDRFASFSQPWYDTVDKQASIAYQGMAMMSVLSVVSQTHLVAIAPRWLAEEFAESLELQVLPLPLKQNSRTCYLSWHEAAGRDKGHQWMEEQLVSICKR

LeuO (Escherichia coli) = assay: EMSA; settings: EMSA: 10 mM Tris-HCl, 50 mM KCl, 5 mM MgCl2, 5% glycerol, 0.1 mg/ml BSA, pH 7.5, 500 ng salmon sperm DNA in 20 µl, 15 min at room temperature; gel 0.5x TBE at …

Row | ΔTm (LeuO) | Compound | K half (LeuO (Escherichia coli))
1 | 1.6 °C | CC(C)[C@@](O)(CC(=O)O)C(=O)O [2-IPM, 2-isopropylmalate] | –
2 | – | leuLABCD promoter region fragment | 25 nM
